Test results published in ChEMBL document CHEMBL3046801, “Synthesis of 2-R1-2-(4-(2-fluoroethoxy)benzamido)acetate as potential PET imaging agents” (Med Chem Res, 2012).

Key:
[1] = system: Tumour; experiment: Biodistribution in tumor of Mus musculus KM (mouse) at 3.7 MBq, iv measured at 120 min by microPET imaging analysis; format: ADME, organism-based, Neoplasm; settings: in vivo, 2 h
[2] = system: Kidney; experiment: Biodistribution in tumor bearing Mus musculus KM (mouse) kidney at 3.7 MBq, iv by microPET imaging analysis; format: ADME, organism-based; settings: in vivo, TDE = time-dependent effect
[3] = system: Lung; experiment: Biodistribution in tumor bearing Mus musculus KM (mouse) lung at 3.7 MBq, iv measured at 5 min by microPET imaging analysis; format: ADME, organism-based; settings: in vivo
[4] = system: Kidney; experiment: Biodistribution in tumor bearing Mus musculus KM (mouse) kidney at 3.7 MBq, iv measured at 60 min by microPET imaging analysis; format: ADME, organism-based; settings: in vivo, 1 h
[5] = system: Muscle tissue; experiment: Biodistribution in tumor bearing Mus musculus KM (mouse) muscle at 3.7 MBq, iv measured at 5 min by microPET imaging analysis; format: ADME, organism-based; settings: in vivo
[6] = system: Liver; experiment: Biodistribution in tumor bearing Mus musculus KM (mouse) liver at 3.7 MBq, iv by microPET imaging analysis; format: ADME, organism-based; settings: in vivo, TDE = time-dependent effect
[7] = system: Tumour; experiment: Biodistribution in tumor of Mus musculus KM (mouse) at 3.7 MBq, iv by microPET imaging analysis; format: ADME, organism-based, Neoplasm; settings: in vivo, TDE = time-dependent effect
[8] = system: Heart; experiment: Biodistribution in tumor bearing Mus musculus KM (mouse) heart at 3.7 MBq, iv measured at 60 min by microPET imaging analysis; format: ADME, organism-based; settings: in vivo, 1 h
[9] = system: Kidney; experiment: Biodistribution in tumor bearing Mus musculus KM (mouse) kidney at 3.7 MBq, iv measured at 30 min by microPET imaging analysis; format: ADME, organism-based; settings: in vivo, 0.5 h
[10] = Octanol-PBS partition coefficient of the compound at pH 7.4 by gamma counter; format: physicochemical; settings: read-out: log KOW
[11] = Chemical stability in sodium chloride up to 2 hr by HPLC analysis; format: physicochemical
[12] = system: Brain; experiment: Biodistribution in tumor bearing Mus musculus KM (mouse) brain at 3.7 MBq, iv measured at 5 min by microPET imaging analysis; format: ADME, organism-based; settings: in vivo
[13] = system: Liver; experiment: Clearance in tumor-bearing Mus musculus KM (mouse) liver at 3.7 MBq, iv measured at 60 min; format: ADME, organism-based; settings: in vivo, 1 h
[14] = system: Liver; experiment: Biodistribution in tumor bearing Mus musculus KM (mouse) liver at 3.7 MBq, iv measured at 120 min by microPET imaging analysis; format: ADME, organism-based; settings: in vivo, 2 h
[15] = system: Nucleic Acid; experiment: Ratio of drug uptake in tumor to muscle in Mus musculus KM (mouse) at 3.7 MBq, iv at 60 min; format: ADME, organism-based; settings: in vivo, 1 h
[16] = system: Liver; experiment: Biodistribution in tumor bearing Mus musculus KM (mouse) liver at 3.7 MBq, iv measured at 60 min by microPET imaging analysis; format: ADME, organism-based; settings: in vivo, 1 h
[17] = system: Kidney; experiment: Biodistribution in tumor bearing Mus musculus KM (mouse) kidney at 3.7 MBq, iv measured at 15 min by microPET imaging analysis; format: ADME, organism-based; settings: in vivo, 0.25 h
[18] = system: Muscle tissue; experiment: Biodistribution in tumor bearing Mus musculus KM (mouse) muscle at 3.7 MBq, iv measured at 30 min by microPET imaging analysis; format: ADME, organism-based; settings: in vivo, 0.5 h
[19] = system: Blood; experiment: Clearance in tumor-bearing Mus musculus KM (mouse) blood at 3.7 MBq, iv measured at 60 min; format: ADME, organism-based; settings: in vivo, 1 h
[20] = system: Blood; experiment: Biodistribution in tumor bearing Mus musculus KM (mouse) blood at 3.7 MBq, iv measured at 120 min by microPET imaging analysis; format: ADME, organism-based; settings: in vivo, 2 h
[21] = system: Nucleic Acid; experiment: Ratio of drug uptake in tumor to muscle in Mus musculus KM (mouse) at 3.7 MBq, iv at 30 min; format: ADME, organism-based; settings: in vivo, 0.5 h
[22] = system: Muscle tissue; experiment: Biodistribution in tumor bearing Mus musculus KM (mouse) muscle at 3.7 MBq, iv measured at 15 min by microPET imaging analysis; format: ADME, organism-based; settings: in vivo, 0.25 h
[23] = system: Heart; experiment: Biodistribution in tumor bearing Mus musculus KM (mouse) heart at 3.7 MBq, iv measured at 30 min by microPET imaging analysis; format: ADME, organism-based; settings: in vivo, 0.5 h
[24] = system: Brain; experiment: Biodistribution in tumor bearing Mus musculus KM (mouse) brain at 3.7 MBq, iv measured at 15 min by microPET imaging analysis; format: ADME, organism-based; settings: in vivo, 0.25 h
[25] = Metabolic stability in serum after 1 hr by HPLC analysis; format: ADME
[26] = system: Muscle tissue; experiment: Biodistribution in tumor bearing Mus musculus KM (mouse) muscle at 3.7 MBq, iv measured at 120 min by microPET imaging analysis; format: ADME, organism-based; settings: in vivo, 2 h
[27] = system: Blood; experiment: Biodistribution in tumor bearing Mus musculus KM (mouse) blood at 3.7 MBq, iv measured at 5 min by microPET imaging analysis; format: ADME, organism-based; settings: in vivo
[28] = system: Liver; experiment: Biodistribution in tumor bearing Mus musculus KM (mouse) liver at 3.7 MBq, iv measured at 30 min by microPET imaging analysis; format: ADME, organism-based; settings: in vivo, 0.5 h
[29] = system: Nucleic Acid; experiment: Ratio of drug uptake in tumor to muscle in Mus musculus KM (mouse) at 3.7 MBq, iv at 5 min; format: ADME, organism-based; settings: in vivo
[30] = system: Kidney; experiment: Clearance in tumor-bearing Mus musculus KM (mouse) kidney at 3.7 MBq, iv measured at 60 min; format: ADME, organism-based; settings: in vivo, 1 h
[31] = system: Kidney; experiment: Biodistribution in tumor bearing Mus musculus KM (mouse) kidney at 3.7 MBq, iv measured at 5 min by microPET imaging analysis; format: ADME, organism-based; settings: in vivo
[32] = system: Muscle tissue; experiment: Biodistribution in tumor bearing Mus musculus KM (mouse) muscle at 3.7 MBq, iv by microPET imaging analysis; format: ADME, organism-based; settings: in vivo, TDE = time-dependent effect
[33] = system: Kidney; experiment: Biodistribution in tumor bearing Mus musculus KM (mouse) kidney at 3.7 MBq, iv measured at 120 min by microPET imaging analysis; format: ADME, organism-based; settings: in vivo, 2 h
[34] = system: Blood; experiment: Biodistribution in tumor bearing Mus musculus KM (mouse) blood at 3.7 MBq, iv measured at 60 min by microPET imaging analysis; format: ADME, organism-based; settings: in vivo, 1 h
[35] = system: Blood; experiment: Biodistribution in tumor bearing Mus musculus KM (mouse) blood at 3.7 MBq, iv by microPET imaging analysis; format: ADME, organism-based; settings: in vivo, TDE = time-dependent effect
[36] = system: Lung; experiment: Biodistribution in tumor bearing Mus musculus KM (mouse) lung at 3.7 MBq, iv measured at 60 min by microPET imaging analysis; format: ADME, organism-based; settings: in vivo, 1 h
[37] = system: Heart; experiment: Biodistribution in tumor bearing Mus musculus KM (mouse) heart at 3.7 MBq, iv by microPET imaging analysis; format: ADME, organism-based; settings: in vivo, TDE = time-dependent effect
[38] = system: Nucleic Acid; experiment: Ratio of drug uptake in tumor to muscle in Mus musculus KM (mouse) at 3.7 MBq, iv at 120 min; format: ADME, organism-based; settings: in vivo, 2 h
[39] = system: Liver; experiment: Biodistribution in tumor bearing Mus musculus KM (mouse) liver at 3.7 MBq, iv measured at 15 min by microPET imaging analysis; format: ADME, organism-based; settings: in vivo, 0.25 h
[40] = system: Tumour; experiment: Biodistribution in tumor of Mus musculus KM (mouse) at 3.7 MBq, iv measured at 5 min by microPET imaging analysis; format: ADME, organism-based, Neoplasm; settings: in vivo
[41] = system: Blood; experiment: Biodistribution in tumor bearing Mus musculus KM (mouse) blood at 3.7 MBq, iv measured at 15 min by microPET imaging analysis; format: ADME, organism-based; settings: in vivo, 0.25 h
[42] = system: Lung; experiment: Biodistribution in tumor bearing Mus musculus KM (mouse) lung at 3.7 MBq, iv by microPET imaging analysis; format: ADME, organism-based; settings: in vivo, TDE = time-dependent effect
[43] = system: Heart; experiment: Biodistribution in tumor bearing Mus musculus KM (mouse) heart at 3.7 MBq, iv measured at 5 min by microPET imaging analysis; format: ADME, organism-based; settings: in vivo
[44] = system: Tumour; experiment: Biodistribution in tumor of Mus musculus KM (mouse) at 3.7 MBq, iv measured at 15 min by microPET imaging analysis; format: ADME, organism-based, Neoplasm; settings: in vivo, 0.25 h

Drug uptake [1]: 1.21 % ID/g
Drug uptake [2]: tde
Drug uptake [3]: 5.09 % ID/g
Drug uptake [4]: 0.97 % ID/g
Drug uptake [5]: 2.02 % ID/g
Drug uptake [6]: tde
Drug uptake [7]: tde
Drug uptake [8]: 0.91 % ID/g
Drug uptake [9]: 1.77 % ID/g
logD [10]: 0.57
Stability [11]: Stable
Drug uptake [12]: 1.51 % ID/g
CLH [13]: 91%
Drug uptake [14]: 0.68 % ID/g
Ratio [15]: 2.8
Drug uptake [16]: 0.73 % ID/g
Drug uptake [17]: 4.07 % ID/g
Drug uptake [18]: 0.94 % ID/g
CL [19]: 96%
Drug uptake [20]: 0.85 % ID/g
Ratio [21]: 1.82
Drug uptake [22]: 1.25 % ID/g
Drug uptake [23]: 0.95 % ID/g
Drug uptake [24]: 1.26 % ID/g
Stability [25]: Stable
Drug uptake [26]: 1.17 % ID/g
Drug uptake [27]: 4.68 % ID/g
Drug uptake [28]: 1.08 % ID/g
Ratio [29]: 1.05
CL [30]: 97%
Drug uptake [31]: 7.25 % ID/g
Drug uptake [32]: tde
Drug uptake [33]: 0.65 % ID/g
Drug uptake [34]: 0.98 % ID/g
Drug uptake [35]: tde
Drug uptake [36]: 0.87 % ID/g
Drug uptake [37]: tde
Ratio [38]: 1.03
Drug uptake [39]: 2.11 % ID/g
Drug uptake [40]: 2.12 % ID/g
Drug uptake [41]: 2.17 % ID/g
Drug uptake [42]: tde
Drug uptake [43]: 2.64 % ID/g
Drug uptake [44]: 2.3 % ID/g
SMILES: COC(=O)CNC(=O)c1ccc(OCC[18F])cc1 [[18F]FEBA]
